Data set [1] can be described thus: Clearance in rat at 5 mg/kg, iv. The class given is ADME, organism-based. The arrangement: dose 5 mg/kg, route intravenous. To be noted: in vivo.
Data set [2] is described as follows: Oral bioavailability in rat at 15 mg/kg, po. The class given is ADME, organism-based. To be noted: in vivo.

Each structure is given as a SMILES string.

For `Cc1c(CN(C)C[C@@H](O)c2ccccn2)sc2c(=O)c(C(=O)NCc3ccc(Cl)cc3)cn(C)c12`, the clearance in data set [1] was 1.4 L/h/kg. The molecule further gave a bioavailability in data set [2] of 30%.

With `CN(CC1=CC2C(=O)C(C(=O)NCc3ccc(Cl)cc3)=CN(C)C2S1)C[C@@H](O)c1ccccn1` (stereo partly specified), in data set [1], the clearance is 2.8 L/h/kg. In addition, the bioavailability in data set [2] was found to be 45%.

`Cc1c(CN(C)C[C@@H](O)c2ncccn2)sc2c(=O)c(C(=O)NCc3ccc(F)cc3)cn(C)c12`: the clearance in data set [1] is 2.1 L/h/kg. This molecule also came in with a bioavailability in data set [2] of 29%.

One may read the clearance as the rate of elimination divided by the concentration. As a reminder, the bioavailability is dose-corrected exposure relative to a reference, in per cent.

Values taken from ChEMBL document CHEMBL1149529 (Bioorg Med Chem Lett, 2007).
